Results reported in patent US20090270508A1, “GluR2 receptor modulators” (priority 2007, published 2009).
Each block holds one compound with its values, some of them ahead of it.

Experiments:
Delta ATD GluR2 = experiment: Two electrode voltage clamp (TEVC) recording of glutamate currents in oocytes; assay type: cell-based; conditions: glutamate plus compound versus glutamate alone, FIG. 3
Text: FIG. 3. LY451646 potentiates glutamate currents from Delta ATD GluR2 as measured by TEVC in oocytes. The top tracing represents application of glutamate alone, the bottom tracing glutamate plus LY451646.
(§1) LY451646 is an […] of GluR2. […] The top tracing represents application of glutamate alone, the bottom tracing glutamate plus LY451646. […] In the absence of LY451646, the amount of dimerized GluR2 barely rises above baseline (FIG. 4A). With the addition of LY451646, dimers overtake monomers (FIG. 4B).

GluR2 S1S2 = GluR2 S1S2 (Rattus norvegicus, UniProt P19491, DEL528-650/N775S/S652T/V651G); experiment: Dimerization of GluR2 S1S2; conditions: FIG. 4A-B
Text: (A) GluR2 alone; (B) GluR2S1S2 in the presence of LY451646.
as §1

GluR2 receptor = molecular target: T1, GluR2 receptor (Rattus norvegicus, UniProt P19491); experiment: Electrophysiologic studies in GluR2 expressing oocytes (I/Imax versus concentration); assay type: cell-based; conditions: cells expressing the GluR2 receptor, FIG. 16A-D
T1 construct: expressed in transfected cells; host or cells: Xenopus laevis oocytes
Experimental: FIG. 16A-E. Electrophysiologic studies comparing N,N′-(2R,2′R)-2,2′-(biphenyl-4,4′-diyl)bis(propane-2,1-diyl)dipropane-2-sulfonamide) with LY451646. A. Microamperes of current over various periods of time in a GluR2 expressing oocyte (Xenopus laevis oocyte with microinjected rat GluR2 receptor-encoding mRNA), exposed to various concentrations (0.001 μM, 0.01 μM, 0.1 μM and 1 μM) of N,N′-(2R,2′R)-2,2′-(biphenyl-4,4′-diyl)bis(propane-2,1-diyl)dipropane-2-sulfonamide). B. Microamperes of current over various periods of time in a GluR2 expressing oocyte exposed to various concentrations (0.001 μM, 0.01 μM, 0.1 μM, 1 μM and 10 μM) of LY451646. C. In an oocyte expressing GluR2, ratio of current/maximal current (I/Imax) versus concentration of N,N′-(2R,2′R)-2,2′-(biphenyl-4,4′-diyl)bis(propane-2,1-diyl)dipropane-2-sulfonamide). D. In an oocyte expressing GluR2, ratio of current/maximal current (I/Imax) versus concentration of LY451646. E. N,N′-(2R,2′R)-2,2′-(biphenyl-4,4′-diyl)bis(propane-2,1-diyl)dipropane-2-sulfonamide).

despair = conditions: Bai et al., 2001; cited from earlier work
[1] = system: hippocampal cell proliferation; conditions: rats, Bai et al., 2003; cited from earlier work
GluR21 receptors = GluR21 receptors (Rattus norvegicus, UniProt P19491); experiment: Whole-cell recording, potentiation of steady-state glutamate-induced currents; assay type: cell-based; conditions: whole-cell mode (−60 mV), 1 mM glutamate
Experimental: FIG. 18. (A) Potentiation of steady-state glutamate-induced currents for GluR2; receptors and (B) % current potentiation bar graph.
Potentiation of steady-state glutamate-induced currents for GluR21 receptors by N,N′-(2S,2′S)-2,2′-(biphenyl-4,4′-diyl)bis(2-fluoropropane-2,1-diyl)dipropane-2-sulfonamide).
The recordings are in whole-cell mode (−60 mV) and show inward currents elicited by 1 mM glutamate in the presence of various concentrations of N,N′-(2S,2′S)-2,2′-(biphenyl-4,4′-diyl)bis(2-fluoropropane-2,1-diyl)dipropane-2-sulfonamide).

locomotor activity = experiment: Amphetamine-induced locomotor activity in activity chambers; assay type: in vivo; conditions: mice, 1 mg/kg and 3 mg/kg i.p.
Experimental: FIG. 17. Effect of N,N′-(2R,2′R)-2,2′-(biphenyl-4,4′-diyl)bis(propane-2,1-diyl)dipropane-2-sulfonamide) on locomotor activity in the context of various doses of amphetamine.
Mice (male, 8 weeks of age; 129S6/SvEv from Taconic) were housed in groups of five for one week. Animals were injected (i.p.) with either vehicle (diluent:saline at a ratio of 3:50 v/v), or one of two doses of GR341 (1 mg/kg and 3 mg/kg). After 15 minutes, animals were injected (i.p.) either with saline or Amphetamine at 3 mg/kg. Mice were held individually without food or water for an additional 15 minutes and then placed in Plexiglas activity chambers (model ENV-520; Med Associates, St. Albans, Vt.) (43.2 cm long×43.2 cm wide×30.5 cm high) to assess locomotor activity. Mice were placed into the center of the open field, and activity was recorded for 30 minutes with subtotals for 5-minute increments. Testing was performed in darkness to minimize anxiety.

AMPA = conditions: rat, glucose utilization and c-fos expression, Fowler et al., 2004; cited from earlier work
[2] = molecular target: GluR2 Flip splice variant (Homo sapiens, UniProt P42262); conditions: by decreasing desensitization, Quirk and Nisenbaum, 2003; cited from earlier work
[3] = system: rat model of Parkinson's disease; conditions: O'Neil et al., 2004; cited from earlier work

GluR21 receptors, sequence (P19491 22-883 isoform P19491-2 limits assumed): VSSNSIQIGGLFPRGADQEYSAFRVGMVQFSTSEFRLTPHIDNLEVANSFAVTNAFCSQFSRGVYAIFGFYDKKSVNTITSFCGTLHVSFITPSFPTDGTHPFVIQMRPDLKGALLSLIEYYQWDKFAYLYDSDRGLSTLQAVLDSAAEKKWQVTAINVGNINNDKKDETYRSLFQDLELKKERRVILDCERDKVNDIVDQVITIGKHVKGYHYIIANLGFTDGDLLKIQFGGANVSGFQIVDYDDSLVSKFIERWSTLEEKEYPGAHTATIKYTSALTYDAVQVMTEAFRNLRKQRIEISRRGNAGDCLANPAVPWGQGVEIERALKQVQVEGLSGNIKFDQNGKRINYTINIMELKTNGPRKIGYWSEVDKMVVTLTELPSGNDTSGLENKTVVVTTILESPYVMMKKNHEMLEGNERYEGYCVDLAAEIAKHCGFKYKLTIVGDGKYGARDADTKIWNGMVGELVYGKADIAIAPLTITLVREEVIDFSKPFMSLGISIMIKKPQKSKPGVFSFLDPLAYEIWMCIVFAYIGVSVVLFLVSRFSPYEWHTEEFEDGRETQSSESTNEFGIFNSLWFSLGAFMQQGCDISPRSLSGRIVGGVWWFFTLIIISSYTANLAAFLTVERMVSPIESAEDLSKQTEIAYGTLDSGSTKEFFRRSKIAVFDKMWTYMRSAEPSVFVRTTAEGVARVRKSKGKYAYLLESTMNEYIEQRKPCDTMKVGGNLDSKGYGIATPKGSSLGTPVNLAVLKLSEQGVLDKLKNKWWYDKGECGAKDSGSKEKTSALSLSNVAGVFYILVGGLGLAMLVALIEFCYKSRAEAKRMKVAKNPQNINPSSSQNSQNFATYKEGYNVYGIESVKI
T1 sequence (P19491 22-883): as the sequence (P19491 22-883 isoform P19491-2 limits assumed) above, with T744N, P745A, S754N, V758L, A775S, K776G, D777G, S778G, G779D counted along it
GluR2 Flip splice variant, sequence (P42262 22-883 isoform P42262-2 limits assumed): as the sequence (P19491 22-883 isoform P19491-2 limits assumed) above, with T170M, A270T, G743R, P831A counted along it
GluR2 S1S2, sequence (P19491 with tags, fused parts or gaps DEL528-650/V651G/S652T/N775S): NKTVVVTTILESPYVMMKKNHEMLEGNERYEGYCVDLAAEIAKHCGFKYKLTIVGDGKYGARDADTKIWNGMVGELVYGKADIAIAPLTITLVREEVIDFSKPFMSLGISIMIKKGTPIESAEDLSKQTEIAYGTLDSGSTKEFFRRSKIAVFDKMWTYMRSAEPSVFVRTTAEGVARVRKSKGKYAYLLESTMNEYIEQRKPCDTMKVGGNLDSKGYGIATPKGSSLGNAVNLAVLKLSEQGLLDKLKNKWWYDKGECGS

Compound: CC(C)S(=O)(=O)NC[C@H](C)c1ccc(-c2ccc(C#N)cc2)cc1 [LY451646]
effect on glutamate currents (Delta ATD GluR2): potentiate glutamate currents
dimerization of GluR2 S1S2 (GluR2 S1S2): promotes dimerization
EC50 (GluR2 receptor): 130 ± 16 nM
"despair" in the FST and TST (despair): reduce “despair”
hippocampal cell proliferation [1]: increase hippocampal cell proliferation

saturating concentration (GluR21 receptors): 200 nM
effect on glutamate receptor currents (GluR21 receptors; FIG. 18): potentiates glutamate receptor currents
EC50 (GluR21 receptors; FIG. 18B, approximately half saturating concentration): ~50 nM
Compound: CC(C)S(=O)(=O)NC[C@@](C)(F)c1ccc(-c2ccc([C@](C)(F)CNS(=O)(=O)C(C)C)cc2)cc1 [N,N′-(2S,2′S)-2,2′-(biphenyl-4,4′-diyl)bis(2-fluoropropane-2,1-diyl)dipropane-2-sulfonamide)]

EC50 (GluR2 receptor): 12.7 ± 0.6 nM
Compound: CC(C)S(=O)(=O)NC[C@H](C)c1ccc(-c2ccc([C@@H](C)CNS(=O)(=O)C(C)C)cc2)cc1 [GR341]
effect on amphetamine-induced locomotor activity (locomotor activity; amphetamine 3 mg/kg i.p., 30 minutes, FIG. 17): inhibited amphetamine-induced locomotor activity
effect of the compound alone on locomotor activity (locomotor activity; saline instead of amphetamine): no significant effect

Compound: CC(CNS(=O)(=O)C(C)C)c1ccc(-c2ccc(C#N)cc2)cc1 (centres unmarked) [LY404187, R,S—N-2-(4-(4-Cyanophenyl)phenyl)propyl 2-propanesulfonamide]
glutamate dependent AMPA stimulation of the brain (AMPA): increases glutamate dependent AMPA stimulation
receptor's response to glutamate [2]: potentiate the receptor's response to glutamate
neurotrophic effect [3]: exhibit a neurotrophic effect
